# Data taken from patent US9416144B2, “Benzoxazine oxazolidinone compound, preparation method and application thereof” (priority 2012, dated 2016).
# Where “and” joins values, the source holds several entries; their conditions need not be identical. Equal entries are not always repeated. Where two headings read alike, the source gives them in different places.
# What was measured:
# [1] = tested on: S.a. ATCC 29213 (standard strain of Staphylococcus aureus); experiment: In vitro antibacterial activity on linezolid-resistant strains, MIC in MHB broth, 96-well plate; format: cell-based; details: ATCC29213, 35° C. 20 hrs
# Method: (§1) The stock solution of the subject drugs in DMSO was 10 mg/mL. MHA (agar) and MHB (broth) were both prepared according to the manufacturer's requirements.
# (§2) Double dilution of drugs: under aseptic operation, 12.8 μL of liquid drug was added into the first well of a 96-well plate, and then added 27.2 μL DMSO and mixed. The 2nd to 12nd wells were all added 20 μL DMSO. 20 μL was taken from the first well to the second well and mixed up. 20 μL was taken from the second well to the third well, which was repeated till the 11st well, from which was taken 20 μL and discarded. The 12nd well only had 20 μL of DMSO as the growth control. Then 180 μL of sterile water was added to each well and mixed up. The drug used as control was prepared by the same method.
# (§3) The solutions with different concentrations of antibacterial drugs after the double dilution and DMSO were added into a sterile 96-well plate separately, 10 μL per well, ready for use.
# (§4) Single colonies were picked from the MHA plates into 5 ml of sterile saline and mixed up.
# (§5) Light transmittance was adjusted to 80% with a spectrophotometer. After being diluted by 1:200 with MHB, 90 μL of such bacteria liquid was added into each of the wells which already had 10 μL of the drug liquid, mixed up, and incubated in a regular biochemical incubator at 35° C. for 20 hrs before the results were read out. At this time, the drug concentration in the 1st to 12nd wells was 32, 16, 8, 4, 2, 1, 0.5, 0.25, 0.125, 0.0625, 0.03125, 0 μg/mL, respectively.
# (§6) Two parallel groups were set up for the same diluted concentration of a drug.
# (§7) 4) Results Reading and Judgment: Refer to the Standard Recommended by the CLSI, 2010 Edition.
# (§8) The positive control group was LZ (linezolid, brand name Zyvox, approved by the FDA in 2000 to be firstly sold in the United States, which is the first and also the only one of oxazolidinone antibacterial drugs allowed to enter clinical application).
# [2] = tested on: LRSE, linezolid-resistant strain of Staphylococcus epidermidis (1 strain); experiment: as above; format: cell-based; details: LRSE (1 strain)
# Method: as §1, §2, §3, §4, §5, §6, §7, §8
# [3] = tested on: LREFA, linezolid-resistant strain of Enterococcus faecium (3 strains); experiment: as above; format: cell-based; details: LREFA (3 strains)
# Method: as §1, §2, §3, §4, §5, §6, §7, §8
# [4] = tested on: LRSA, linezolid-resistant strain of Staphylococcus aureus (3 strains); experiment: as above; format: cell-based; details: LRSA (3 strains)
# Method: as §1, §2, §3, §4, §5, §6, §7, §8
# [5] = tested on: LREFL, linezolid-resistant strain of Enterococcus faecalis (3 strains); experiment: as above; format: cell-based; details: LREFL (3 strains)
# Method: as §1, §2, §3, §4, §5, §6, §7, §8
# [6] = tested on: Streptococcus pneumoniae resistant strains (4 strains); experiment: In vitro antibacterial activity, MIC by agar double dilution method; format: cell-based; details: clinical isolates
# Description: (§9) Experimental method: The agar double dilution method (Antimicrob. Agents and Chemother, 40, 1996, 720-726) was used to determine the minimum inhibitory concentration (MIC) of the series of compounds of the invention and the positive control drug linezolid for the test strains. The multipoint inoculation system (Denley A400) was employed to inoculate the bacteria on the agar plate surface with different concentrations of drugs; inoculation amount on each point was about 10^6 CFU/mL. The plates were incubated at 35° C. for 16 hrs before the results were observed. The lowest drug concentration contained in the Petri dish without bacterial growth was used as the minimum inhibitory concentration (MIC value) of the drug fir that strain.
# (§10) Test strains: All the test strains were clinically isolated pathogens which were collected from the Nanjing region, and they were re-identified by routine methods before use. 31 strains of the clinically isolated pathogens were chosen, including 6 strains of Enterococcus, 5 Staphylococcus aureus sensitive strains; 5 Staphylococcus epidermidis sensitive strains; 6 Staphylococcus aureus resistant strains; 5 Staphylococcus epidermidis resistant strains; and 4 Streptococcus pneumoniae resistant strains.
# (§11) Compounds to be tested were first added 2 ml of DMSO to help them fully dissolved, then added sterile double distilled water to the desired concentration; to all the Petri dish with added drug liquid were added 20 mL MIT medium which was heat-melted to be liquid-like, to make the final drug concentration in the Petri dish to be 64, 32, 16, 8, 4, 2, 1, 0.5, 0.25, 0.125, 0.0625, and 0.031 μg/mL.
# as §8
# [7] = tested on: Staphylococcus aureus sensitive strains (5 strains); experiment: as above; format: cell-based; details: clinical isolates
# Description: as §9, §10, §11, §8
# [8] = tested on: Staphylococcus epidermidis resistant strains (5 strains); experiment: as above; format: cell-based; details: clinical isolates
# Description: as §9, §10, §11, §8
# [9] = tested on: Staphylococcus epidermidis sensitive strains (5 strains); experiment: as above; format: cell-based; details: clinical isolates
# Description: as §9, §10, §11, §8
# [10] = tested on: Staphylococcus aureus resistant strains (6 strains); experiment: as above; format: cell-based; details: clinical isolates
# Description: as §9, §10, §11, §8
# Enterococcus (6 strains) = experiment: as above; format: cell-based; details: clinical isolates, 35° C. 16 hrs
# Description: as §9, §10, §11, §8
# [11] = In vivo pharmacokinetic assays in rats (intragastric and intravenous), plasma Compound 14 by LC-MS/MS; design: species or system SD rats
# Method: Two routes of administration (intragastric administration and intravenous injection) were employed.
# (§12) Intragastric administration: Four healthy SD rats, male, weight 200-250 g, were dosed 15 mg/kg; the delivery volume was 10 ml/kg, prepared with 0.5% CMC-Na. The rats were fasted for 12 hrs before administration, free water-drinking. 0.3 ml of venous blood was taken from the posterior venous plexus of rats to heparinized tubes at 0.25, 0.5, 1.0, 2.0, 3.0, 4.0, 5.0, 7.0, 9.0, 24, and 48 hrs after administration, centrifuged at 3500 rpm for 10 mins to separate the plasma, which was then stored at −20° C. for test.
# as §12, with “Intravenous injection: Two” for “Intragastric administration: Four”, “200˜250” for “200-250”, “5” for “15”, “DMSO, Tween 80 and deionized water.” for “0.5% CMC-Na.”, “5 min, 15 min, and” for “0.25,”
# The concentration of Compound 14 in plasma was determined by liquid chromatography tandem mass spectrometry.
# In accordance with the above experimental methods, the inventor has determined the in vivo pharmacokinetic properties of phosphate (ester) disodium salt 37 of Compound 14 in rats.
# [12] = tested on: methicillin-resistant Staphylococcus aureus ATCC 33591 (MRSA); experiment: In vivo antibacterial activity, mice with systemic infection by MRSA, survival at 48 hours; details: female ICR mice, systemic infection (2.35 × 10^7 CFU/mice, intraperitoneal), oral administration 1 hour after infection
# Method: Test strains: the strain used to infect animals was methicillin-resistant Staphylococcus aureus ATCC 33591 (MRSA).
# Experimental animals: female ICR mice, age: 4 to 5 weeks, weight 20 to 22 grams, available from Shanghai Sippr BK Experimental Animal Co., Ltd., qualification certificate No.: 2008001625863.
# Experimental method: Mice were randomly divided into groups. There were 4 dosage groups for each subject drug each administration manner: 2.5, 5, 10 and 20 mg/kg, 6 mice for each dosage group. Furthermore, a gastric mucin vehicle group was used as negative control for each administration manner. Mice were intraperitoneally injected with 10^7-10^8 CFU/mL of the bacterial suspension, 0.5 ml/mouse, and at 1 hour after infection the mice were orally administered the corresponding drugs for treatment, dosing volume 0.2 mL/20 g. This research program complied with the provisions and relevant regulations of National Laboratory Animal Management and Welfare.
# [13] = In vivo pharmacokinetic assays in rats (intragastric and intravenous), plasma Compound 14 by LC-MS/MS; design: species or system SD rats; details: for CLz: parameters of 14 in rats after 10 mg/kg Compound 37 intravenous injection
SMILES,MIC [1],MIC [2],MIC [3],MIC [4],MIC [5],MIC [6],MIC [7],MIC [8],MIC [9],MIC [10],MIC (Enterococcus (6 strains)),melting point,"plasma exposure of 14 of the group receiving 37 relative to the group receiving 14 ([11]; intragastric administration, upon measurement normalization)","plasma exposure of intravenous injection relative to that of Compound 14 ([11]; intravenous injection, prodrug 37 vs Compound 14)","oral plasma exposure relative to that of Compound 14 ([11]; oral, prodrug 37 vs Compound 14)",ED50 [12],CLz ([13]; average value),CLz ([13]; individual animals No. 5-7),"plasma exposure of compound 14 of the group receiving 37 relative to the group receiving 14 ([13]; rats, intravenous injection, upon measurement normalization)","ED50 ([12]; Staphylococcus aureus, read-out: ED50)"
"C[C@@H](O)C(O)c1ccc(-c2ccc3c(c2)OC[C@H]2[C@H](CO)OC(=O)N32)cn1 (stereo partly drawn) [Compound 18, (3R,3aS)-7-(6-((2R)-1,2-dihydroxylpropyl)pyridin-3-yl)-3-(hydroxylmethyl)-3a,4-dihydrobenzo[b]oxazolo[3,4-d][1,4]oxazin-1(3H)-one]",0.5 µg/mL,4 µg/mL,2 to 4 µg/mL,4 µg/mL,2 to 4 µg/mL,2 to 4 µg/mL,2 to 4 µg/mL,1 to 2 µg/mL,1 to 2 µg/mL,2 µg/mL,4 to 8 µg/mL,–,–,–,–,–,–,–,–,–
"N#Cc1ccc(-c2ccc3c(c2)OC[C@H]2[C@H](COC(=O)CCC(=O)O)OC(=O)N32)cn1 [Compound 34, 4-(((3R,3aS)-7-(6-cyanopyridin-3-yl)-1-oxo-1,3,3a,4-tetrahydrobenzo[b]oxazolo[3,4-d][1,4]oxazin-3-yl)methoxyl)-4-oxobutyric acid]",0.5 µg/mL,4 µg/mL,4 µg/mL,8 µg/mL,4 µg/mL,–,–,–,–,–,–,313 to 315 °C,–,–,–,–,–,–,–,–
CN1CC(c2ccc(-c3ccc4c(c3)OC[C@H]3[C@H](COP(=O)([O-])[O-])OC(=O)N43)cn2)OC1=O.[Na+].[Na+] (stereo partly drawn) [Compound 37],–,–,–,–,–,–,–,–,–,–,–,–,157%,1.34 times,1.5 times,5.00 mg/kg,40.3 mL/min/kg,41.3 mL/min/kg and 35.7 mL/min/kg and 44 mL/min/kg,134%,–
"CC(=O)NC[C@H]1CN(c2ccc(N3CCOCC3)c(F)c2)C(=O)O1 [LZ, linezolid, reference compound]",1 µg/mL,16 µg/mL,8 to 16 µg/mL,> 32 µg/mL,8 to 16 µg/mL,2 µg/mL,1 to 2 µg/mL,1 to 2 µg/mL,1 µg/mL,1 to 2 µg/mL,1 to 2 µg/mL,–,–,–,–,–,–,–,–,9.87 mg/kg
